Data reported in US10653688B2, “6-(6-membered heteroaryl and aryl)isoquinolin-3-yl carboxamides and preparation and use thereof” (Samumed, LLC, priority 2017, dated 2020).
Like-named read-outs stand apart in the source and are kept apart here.

What was measured:
[1] = target: recombinant DYRK1A kinase (Homo sapiens (Human), UniProt Q13627); assay: DYRK1A kinase assay (Ser/Thr 18 peptide Z-lyte, FRET)
[2] = test system: IL-6 in human peripheral blood mononuclear cells (huPBMCs); assay: IL-6 inhibition in LPS-stimulated human peripheral blood mononuclear cells (HTRF); format: cell-based; details: Homo sapiens, PBMC; for EC50: LPS 50 ng/mL, 22 hours, IL-6 HTRF
Description: Human Peripheral Blood Mononuclear Cells:
Fresh Normal PB MNC (Catalog # PB001, AllCells, Alameda, Calif.) were shipped overnight at 4° C. and resuspended in Roswell Park Memorial Institute (RPMI) 1640 Medium, with GlutaMAX Supplement (Catalog #61870127, ThermoFisher Scientific, Waltham, Mass.) supplemented with 1% Penicillin-Streptomycin (Catalog #15140163, ThermoFisher Scientific, Waltham, Mass.) and 1% fetal bovine serum (FBS) (Catalog #16140089, ThermoFisher Scientific, Waltham, Mass.) assay media.
Fresh normal human peripheral blood mononuclear cells (huPBMCs) were resuspended in 1% FBS-RPMI assay media with 1% Penicillin-Streptomycin 1% to a cell concentration of 1×10e6 cells/mL. […] 50 ng/mL of Lipopolysaccharides from Escherichia coli 0111:B4 (Catalog # L5293-2ML, Sigma-Aldrich, St. Louis, Mo.) was added after 2 hours and cells were incubated for another 22 hours at 37° C.-5% CO2. After 22 hour incubation, a mixture of anti-IL6 XL665 and anti-IL-6 Cryptate diluted in reconstitution buffer (Catalog #62IL6PEC, Cisbio Inc., Bedford, Mass.) was added to each well. Following incubation for 3 hours at room temperature, Homogeneous Time-Resolved Fluorescence (HTRF) was measured using the Envision (Perkin Elmer, Shelton, Conn.) at 665 nm and […]. The ratio of fluorescence at 665 nm to 620 nm was used as a readout for IL-6 quantification. All samples were processed in duplicate. Readings were normalized to DMSO treated cells and normalized activities were utilized for EC50 calculations. EC50 was determined using software generated by Dotmatics Limited (Windhill Bishops Stortford Herts, UK) using the Levenberg-Marquardt 4 parameter fitting procedure with finite different gradients.

[3] = test system: Wnt activity (SW480 colon carcinoma cells stably expressing the Sp5-Luc reporter gene); assay: Wnt activity screening assay (Sp5-Luc reporter gene assay); format: cell-based, human; details: Homo sapiens, 36 to 48 hours
Description: The screening assay for Wnt activity is described as follows. Reporter cell lines can be generated by stably transducing cancer cell lines (e.g., colon cancer) or primary cells (e.g., IEC-6 intestinal cells) with a lentiviral construct that includes a Wnt-responsive promoter driving expression of the firefly luciferase gene.
SW480 colon carcinoma cells were transduced with a lentiviral vector expressing luciferase with a human Sp5 promoter consisting of a sequence of eight TCF/LEF binding sites. SW480 cells stably expressing the Sp5-Luc reporter gene and a hygromycin resistance gene were selected by treatment with 150 μg/mL of hygromycin for 7 days. These stably transduced SW480 cells were expanded in cell culture and used for all further screening activities. […] For Sp5-Luc reporter gene assays, the cells were plated at 4,000 cells/well in 384-well plates with a DMEM medium containing 1% fetal bovine serum, and 1% Penicillin-Streptomycin and incubated for 36 to 48 hours at 37° C. and 5% CO2. Following incubation, 15 μl of BriteLite Plus luminescence reagent (Perkin Elmer) was added to each well of the 384-well assay plates. The plates were placed on an orbital shaker for 2 min and then luminescence was quantified using the Envision (Perkin Elmer) plate reader. Readings were normalized to DMSO only treated cells, and normalized activities were utilized for EC50 calculations using the dose-response log (inhibitor) vs. response-variable slope (four parameters) nonlinear regression feature available in GraphPad Prism 5.0 (or Dotmatics).

[4] = test system: SW480 colon carcinoma cells; assay: Cell viability assay (CellTiter-Glo); format: cell-based, human; details: Homo sapiens, 96 h, four days, CellTiter-Glo
Description: SW480 colon carcinoma cells were transduced with a lentiviral vector expressing luciferase with a human Sp5 promoter consisting of a sequence of eight TCF/LEF binding sites. SW480 cells stably expressing the Sp5-Luc reporter gene and a hygromycin resistance gene were selected by treatment with 150 μg/mL of hygromycin for 7 days. These stably transduced SW480 cells were expanded in cell culture and used for all further screening activities.
For the Cell Viability Assays, the cells were plated at 2,000 cells/well in 384-well plates with a DMEM medium containing 1% fetal bovine serum, and 1% Penicillin-Streptomycin and incubated for […] at 37° C. and 5% CO2. Eight replicates of DMSO-treated cells served as controls and cells treated with compound were performed in duplicate.
After incubation, 10 μL of CellTiter-Glo (Promega) was added to each well allowed to incubate for approximately 12 minutes. This reagent “results in cell lysis and generation of a luminescent signal proportional to the amount of ATP present. The amount of ATP is directly proportional to the number of cells present in culture, in agreement with previous reports. The CellTiter-Glo Assay generates a “glow-type” luminescent signal, produced by the luciferase reaction (Promega.com)”.

[5] = test system: LL29 cells (primary human fibroblasts derived from IPF patients), α-smooth muscle actin; assay: Inhibition of fibrotic process: TGF-β1-treated primary human fibroblasts, αSMA staining; format: cell-based; details: Homo sapiens, Fibroblast; for EC50: 96 h, TGF-β1 20 ng/mL, 4 days, % cells positive for αSMA;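 as to all read-outs here: controls were TGF-β1-stimulated wells with DMSO vehicle as the positive reference and cells given DMSO alone as the negative reference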
recombinant GSK3β kinase = recombinant GSK3β kinase (Homo sapiens (Human), UniProt P49841); assay: GSK3β kinase assay (Ser/Thr 09 peptide Z-lyte, FRET); format: biochemical;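 also: FRET read-out as coumarin over fluorescein emission ratio, compounds incubated one hour at room temperature, IC50 from dose-response curve fit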
Description: Each compound is dissolved in DMSO as a 10 mM stock and used to prepare compound source plates. Serial dilution (1:3, 11-point dose-response curves from 10 M to 0.0003 M) and compound transfer was performed using the ECHO 550 (Labcyte, Sunnyvale, Calif.) into 1536-well black-walled round bottom plates (Corning).
This is a non-radioactive assay using fluorescence resonance energy transfer (FRET) between coumarin and fluorescein to detect kinase activity which is represented as ratio of coumarin emission/fluorescein emission.
The mixture is allowed to incubate with the representative compounds for one hour at room temperature. All reactions were performed in duplicate. Unphosphorylated (“0% Control”) and phosphorylated (“100% control”) forms of Ser/Thr 18 serve as control reactions.
After incubation, diluted Development Buffer is added to the reaction and allowed to further incubate for one hour at room temperature.
Dose-response curves are generated and inhibitory concentration (IC50) values are calculated using non-linear regression curve fit in the Dotmatics' Studies Software (Bishops Stortford, UK).

[6] = DYRK1A kinase, head says EC50, method says IC50, ATP 30 μM
[7] = GSK3β kinase, head says EC50, method says IC50, ATP 46 μM

Chain of recombinant GSK3β kinase (P49841 whole entry): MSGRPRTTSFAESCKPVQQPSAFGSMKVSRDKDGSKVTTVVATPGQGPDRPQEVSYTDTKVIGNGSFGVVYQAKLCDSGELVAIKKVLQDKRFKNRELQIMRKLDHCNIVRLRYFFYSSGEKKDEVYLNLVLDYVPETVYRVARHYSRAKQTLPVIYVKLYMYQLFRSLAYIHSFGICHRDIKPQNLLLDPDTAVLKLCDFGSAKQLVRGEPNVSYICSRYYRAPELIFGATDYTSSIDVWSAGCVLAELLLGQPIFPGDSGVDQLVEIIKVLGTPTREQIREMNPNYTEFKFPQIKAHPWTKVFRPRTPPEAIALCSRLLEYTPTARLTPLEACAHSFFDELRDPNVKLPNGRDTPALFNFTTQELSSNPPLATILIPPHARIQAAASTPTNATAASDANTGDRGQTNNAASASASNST

Structure (SMILES) | EC50 [1, 6] [nM] | EC50 [2] [nM] | inhibition at 10 µM ([2]; read-out: percent inhibition at 10 μM (given for EC50 >10 μM), LPS, IL-6, 10 μM) [%] | EC50 [3] [nM] | EC50 [4] [nM] | EC50 [5] [nM] | inhibition at 10 µM ([5]; read-out: percent inhibition at 10 μM (given for EC50 >10 μM), TGF-β1, αSMA, 10 μM) [%] | EC50 (recombinant GSK3β kinase; [7]) [nM] | EC50 [1] [nM] | EC50 (recombinant GSK3β kinase) [nM]
CN1CCN(c2cc(C(=O)Nc3cc4cc(-c5cnccn5)ccc4cn3)ccn2)CC1 [Compound 84, 2-(4-Methylpiperazin-1-yl)-N-(6-(pyrazin-2-yl)isoquinolin-3-yl)isonicotinamide] | 96 | > 10000 | 5.7 | 5830 | 8380 | > 10000 | 35.4 | > 10000 |  | 
CNc1cncc(-c2ccc3cnc(NC(=O)c4ccnc(N5CCN(C)CC5)c4)cc3c2)n1 [Compound 85, N-(6-(6-(Methylamino)pyrazin-2-yl)isoquinolin-3-yl)-2-(4-methylpiperazin-1-yl)isonicotinamide] | 2 | 6710 |  | 757 | 2460 | 1850 |  | > 10000 |  | 
CC(C)Nc1cncc(-c2ccc3cnc(NC(=O)C4CNC4)cc3c2)n1 [Compound 86, N-(6-(6-(Isopropylamino)pyrazin-2-yl)isoquinolin-3-yl)azetidine-3-carboxamide] |  | 1130 |  | 1620 | 3420 | 204 |  |  | 1 | 17
CC(C)Nc1cncc(-c2ccc3cnc(NC(=O)C4CCNCC4)cc3c2)n1 [Compound 87, N-(6-(6-(Isopropylamino)pyrazin-2-yl)isoquinolin-3-yl)piperidine-4-carboxamide] | 1 | 377 |  | 201 | 758 | 1920 |  | 38 |  | 
CC(C)Nc1cncc(-c2ccc3cnc(NC(=O)C4CCN(C(C)C)CC4)cc3c2)n1 [Compound 90, 1-isopropyl-N-(6-(6-(isopropylamino)pyrazin-2-yl)isoquinolin-3-yl)piperidine-4-carboxamide] | 1 | 463 |  | 139 | 465 | 37 |  | 10 |  | 
CC(C)Nc1cncc(-c2ccc3cnc(NC(=O)c4cccc(C5CCNCC5)c4)cc3c2)n1 [Compound 92, N-(6-(6-(Isopropylamino)pyrazin-2-yl)isoquinolin-3-yl)-3-(piperidin-4-yl) benzamide] | 9 | 374 |  | 142 | 235 | 3220 |  | 3370 |  | 
CC(C)Nc1cncc(-c2ccc3cnc(NC(=O)c4cccc(C5CCN(C)CC5)c4)cc3c2)n1 [Compound 93, N-(6-(6-(Isopropylamino)pyrazin-2-yl)isoquinolin-3-yl)-3-(1-methylpiperidin-4-yl)benzamide] | 1 | 811 |  | 132 | 171 | 2240 |  | 6550 |  | 
CC(C)Nc1cncc(-c2ccc3cnc(NC(=O)c4cn(C5CCNCC5)nn4)cc3c2)n1 [Compound 94, N-(6-(6-(isopropylamino)pyrazin-2-yl)isoquinolin-3-yl)-1-(piperidin-4-yl)-1H-1,2,3-triazole-4-carboxamide] | 2 | 137 |  | 24 | 46 | 103 |  | 2670 |  | 
CC(C)Nc1cncc(-c2ccc3cnc(NC(=O)c4cn(C5CCN(CCF)CC5)nn4)cc3c2)n1 [Compound 95, 1-(1-(2-fluoroethyl)piperidin-4-yl)-N-(6-(6-(isopropylamino)pyrazin-2-yl)isoquinolin-3-yl)-1H-1,2,3-triazole-4-carboxamide] | 2 | 211 |  | 34 | 1060 | 91 |  | 6960 |  | 
CC(C)Nc1cncc(-c2ccc3cnc(NC(=O)c4cn(C5CCN(C(C)C)CC5)nn4)cc3c2)n1 [Compound 96, N-(6-(6-(Isopropylamino)pyrazin-2-yl)isoquinolin-3-yl)-1-(1-isopropylpiperidin-4-yl)-1H-1,2,3-triazole-4-carboxamide] | 1 | 312 |  | 28 | 91 | 152 |  | 3000 |  | 
CC(C)Nc1cncc(-c2ccc3cnc(NC(=O)c4ccnc(N5CCN(C)CC5)c4)cc3c2)n1 [Compound 97, N-(6-(6-(Isopropylamino)pyrazin-2-yl)isoquinolin-3-yl)-2-(4-methylpiperazin-1-yl)isonicotinamide] | 2 | 184 |  | 7 | 222 | 311 |  | 6270 |  | 
CN(C)C1CN(c2cc(C(=O)Nc3cc4cc(-c5cncc(NC(C)(C)C)n5)ccc4cn3)ccn2)C1 [Compound 98, N-(6-(6-(tert-Butylamino)pyrazin-2-yl)isoquinolin-3-yl)-2-(3-(dimethylamino)azetidin-1-yl)isonicotinamide] | 2 | 87 |  | 24 | 31 | 32 |  | 4800 |  | 
CN1CC=C(c2cc(C(=O)Nc3cc4cc(-c5cncc(NC(C)(C)C)n5)ccc4cn3)ccn2)CC1 [Compound 99, N-(6-(6-(tert-Butylamino)pyrazin-2-yl)isoquinolin-3-yl)-1′-methyl-1′,2′,3′,6′-tetrahydro-[2,4′-bipyridine]-4-carboxamide] | 4 | 125 |  | 18 | 43 | 31 |  | 748 |  | 
CN1CCN(c2cc(C(=O)Nc3cc4cc(-c5cncc(NC(C)(C)C)n5)ccc4cn3)ccn2)CC1 [Compound 100, N-(6-(6-(tert-Butylamino)pyrazin-2-yl)isoquinolin-3-yl)-2-(4-methylpiperazin-1-yl)isonicotinamide] | 4 | 223 |  | 51 | 111 | 45 |  | 5170 |  | 
CC(C)N1CCN(c2cc(C(=O)Nc3cc4cc(-c5cncc(NC(C)(C)C)n5)ccc4cn3)ccn2)CC1 [Compound 101, N-(6-(6-(tert-Butylamino)pyrazin-2-yl)isoquinolin-3-yl)-2-(4-isopropylpiperazin-1-yl)isonicotinamide] | 4 | 260 |  | 42 | 61 | 46 |  | > 10000 |  | 
